According to PubChem BioAssay (NCI):
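Exposure lasted 48 hours, with cells grown in 96-well plates and compounds tested at five concentrations. TGI denotes the concentration required for complete inhibition of growth.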

Tests used:
Assay in all cases: NCI-60 cell line screen, 48 h
SK-MEL-5 melanoma = system: SK-MEL-5 melanoma
RXF 393 renal = system: RXF 393 renal
SK-MEL-2 melanoma = system: SK-MEL-2 melanoma
RPMI-8226 leukemia = system: RPMI-8226 leukemia
SK-OV-3 ovarian = system: SK-OV-3 ovarian
K-562 leukemia = system: K-562 leukemia
MDA-MB-231 breast = system: MDA-MB-231 breast
HS 578T breast = system: HS 578T breast
HOP-62 NSCLC = system: HOP-62 NSCLC
MCF7 breast = system: MCF7 breast
SN12C renal = system: SN12C renal
SR leukemia = system: SR leukemia
BT-549 breast = system: BT-549 breast
T-47D breast = system: T-47D breast
U251 CNS = system: U251 CNS
CAKI-1 renal = system: CAKI-1 renal
LOX IMVI melanoma = system: LOX IMVI melanoma
SF-539 CNS = system: SF-539 CNS
HOP-92 NSCLC = system: HOP-92 NSCLC
MDA-N = system: MDA-N

Row | Compound | TGI (SK-MEL-5 melanoma) [µM] | TGI (RXF 393 renal) [µM] | TGI (SK-MEL-2 melanoma) [µM] | TGI (RPMI-8226 leukemia) [µM] | TGI (SK-OV-3 ovarian) [µM] | TGI (K-562 leukemia) [µM] | TGI (MDA-MB-231 breast) [µM] | TGI (HS 578T breast) [µM] | TGI (HOP-62 NSCLC) [µM] | TGI (MCF7 breast) [µM] | TGI (SN12C renal) [µM] | TGI (SR leukemia) [µM] | TGI (BT-549 breast) [µM] | TGI (T-47D breast) [µM] | TGI (U251 CNS) [µM] | TGI (CAKI-1 renal) [µM] | TGI (LOX IMVI melanoma) [µM] | TGI (SF-539 CNS) [µM] | TGI (HOP-92 NSCLC) [µM] | TGI (MDA-N) [µM]
1 | O=S(CC1(O)CCCCC1)c1ccccc1 (stereo not given) | > 100 | > 100 | > 100 | 2.32 | > 100 | > 100 | > 100 | > 100 | > 100 | > 100 | > 100 | > 100 | > 100 | > 100 | > 100 | > 100 | > 100 |  |  | 
2 | Nc1nc(Cl)c(/C=N\O)c(NCC2(CO)CCC2)n1 | > 100 | > 100 |  | > 100 |  | > 100 | > 100 | > 100 | > 100 | > 100 | > 100 | > 100 | > 100 |  | > 100 | > 100 | > 100 | > 100 | > 100 | > 100
3 | Oc1c(Cl)c(Cl)c(O)c(CCNc2ccc3ncccc3c2)c1Cl | 5.52 | 37.7 | 22.8 |  | 27.6 | > 100 |  | 13.1 | 27.7 | 30.8 | 28.9 | 28 |  | > 100 | 36.8 | 25.4 |  | 39.4 | > 100 | 
4 | N#CC(C#N)=C/C=C(\Sc1c(Cl)c(Cl)nc(Cl)c1Cl)c1ccc(Cl)cc1 | 27.7 | 40 | > 100 | > 100 | 58.9 | > 100 | 60 | 63.7 | 96.6 | > 100 | 42.4 | 68.8 |  | > 100 | 33.3 | 34.2 | 20.5 | 41.8 | > 100 | 
5 | COc1c(OC(C)C)c(OC(C)C)c2oc(=O)n3c2c1C(c1ccccc1-n1c(C)ccc1C)C=C3 (stereo not given) | > 100 | 62.5 | > 100 | > 100 | > 100 | > 100 | > 100 | > 100 | > 100 | > 100 | > 100 |  | > 100 |  | > 100 | > 100 | 59 | > 100 | > 100 | > 100
6 | CC(=O)O/C=C1/C[C@H]2[C@@H]3CCC4CC(C(C)=O)CC[C@]4(C)[C@H]3CC[C@]2(C)C1=O (stereo not given in full) | > 100 | > 100 | > 100 |  | > 100 | > 100 | > 100 |  | > 100 | > 100 | > 100 | > 100 | > 100 |  | > 100 | > 100 | > 100 |  | > 100 | > 100
7 | COc1ccc(P2(=S)Oc3ccccc3-c3ccccc3O2)cc1 | > 79.7 |  | > 100 |  |  | > 100 | > 100 | > 100 | > 100 | > 40.4 |  |  | > 100 | > 100 | > 100 |  | > 100 | 0.537 | 85.3 | 
8 | Cn1c(=O)n2n(c1=O)C(S(=O)(=O)c1ccccc1)C2 (stereo not given) | > 100 | > 100 | > 100 | > 100 | > 100 | > 100 | > 100 | > 100 | > 100 | > 100 | > 100 |  | > 100 |  | > 100 | > 100 | > 100 | > 100 | > 100 | > 100
9 | CCC(C(=O)C(=O)C(CC)P1(=O)OC(C)(C)CN1C(C)(C)C)P1(=O)OC(C)(C)CN1C(C)(C)C (stereo not given) | > 100 | > 100 | > 100 | > 100 | > 100 | > 100 | > 100 | > 100 | > 100 | > 100 | > 100 | > 100 | > 100 | > 100 | > 100 | > 100 | > 100 | > 100 | > 100 | 
10 | COC(=O)C1=CSC2(S1)C(C(=O)OC)=CSc1c2ssc1=O (stereo not given) | 6.62 | 3.62 | 5.92 | 4.24 | 29.7 | > 23 | 4.13 | 12.3 | 17 | 2.89 | 5.1 |  | 12.9 |  | 3.02 | 10.7 | 3.35 | 3.17 | 4.27 | 4.92
11 | COc1cccc(/C=C2\CCCc3ccccc3C2=O)c1 |  |  | 27.4 | 64.1 | 79.3 | 48.2 | 32.5 | 41.4 | 31 | 51.6 | 33 | 31.3 | 39.3 |  | 29.3 | > 100 | 38.9 | 32 | 43.2 | 
